Test results taken from the supplement of paper PMC10307832.

How the values were obtained:
Experiment in all cases: relative viability (nuclei count vs DMSO), 5 days (fraction); higher = more cells survive
Dinaciclib = compound: CCc1cnn2c(NCc3ccc[n+]([O-])c3)cc(N3CCCC[C@H]3CCO)nc12 [Dinaciclib]
How it was run: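 On vehicle-anchored 1536-well plates, lung cancer cell lines held overnight at 37 °C were pinned with five library-drug doses (not always all listed) spaced by √10. With no medium change over 5 days, they were then fixed, permeabilised and Hoechst-stained in one step and imaged at 4×. MetaXpress counted nuclei, and viability is the median across plates of treated-well over vehicle-well nuclei. Acceptance needed control CV below 25% and at least one doubling.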

Dinaciclib + Navitoclax = compound: CCc1cnn2c(NCc3ccc[n+]([O-])c3)cc(N3CCCC[C@H]3CCO)nc12 [Dinaciclib] + CC1(C)CCC(c2ccc(Cl)cc2)=C(CN2CCN(c3ccc(C(=O)NS(=O)(=O)c4ccc(N[C@H](CCN5CCOCC5)CSc5ccccc5)c(S(=O)(=O)C(F)(F)F)c4)cc3)CC2)C1 [Navitoclax] (partner 0.5 µM)
How it was run: (§1)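 Lung cancer cell lines were seeded in 1536-well plates and dosed by pin tool the next day, with either a single drug or a fixed anchor-drug dose combined with five library-drug doses (not always all listed) spaced in √10 steps. Five days later, one step fixed the cells and stained their nuclei (final 0.05% Triton X-100, 1% formaldehyde, 1 ug/ml Hoechst), and nuclei were counted on 4× images. Relative viability is the nuclei count in treated wells divided by the count in vehicle wells, and each value is the median of duplicate plates.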

Dinaciclib + Foretinib = compound: CCc1cnn2c(NCc3ccc[n+]([O-])c3)cc(N3CCCC[C@H]3CCO)nc12 [Dinaciclib] + COc1cc2c(Oc3ccc(NC(=O)C4(C(=O)Nc5ccc(F)cc5)CC4)cc3F)ccnc2cc1OCCCN1CCOCC1 [Foretinib] (partner 0.25 µM)
How it was run: as §1

Dinaciclib + Lapatinib = compound: CCc1cnn2c(NCc3ccc[n+]([O-])c3)cc(N3CCCC[C@H]3CCO)nc12 [Dinaciclib] + CS(=O)(=O)CCNCc1ccc(-c2ccc3ncnc(Nc4ccc(OCc5cccc(F)c5)c(Cl)c4)c3c2)o1 [Lapatinib] (partner 2 µM)
How it was run: as §1

Dinaciclib + Pictilisib = compound: CCc1cnn2c(NCc3ccc[n+]([O-])c3)cc(N3CCCC[C@H]3CCO)nc12 [Dinaciclib] + CS(=O)(=O)N1CCN(Cc2cc3nc(-c4cccc5[nH]ncc45)nc(N4CCOCC4)c3s2)CC1 [Pictilisib] (partner 1 µM)
How it was run: as §1

Dinaciclib + Crizotinib = compound: CCc1cnn2c(NCc3ccc[n+]([O-])c3)cc(N3CCCC[C@H]3CCO)nc12 [Dinaciclib] + C[C@@H](Oc1cc(-c2cnn(C3CCNCC3)c2)cnc1N)c1c(Cl)ccc(F)c1Cl [Crizotinib] (partner 1 µM)
How it was run: as §1

Dinaciclib + Linsitinib = compound: CCc1cnn2c(NCc3ccc[n+]([O-])c3)cc(N3CCCC[C@H]3CCO)nc12 [Dinaciclib] + C[C@]1(O)C[C@@H](c2nc(-c3ccc4ccc(-c5ccccc5)nc4c3)c3c(N)nccn32)C1 [Linsitinib] (partner 1 µM)
How it was run: as §1

Dinaciclib + Alpelisib = compound: CCc1cnn2c(NCc3ccc[n+]([O-])c3)cc(N3CCCC[C@H]3CCO)nc12 [Dinaciclib] + Cc1nc(NC(=O)N2CCC[C@H]2C(N)=O)sc1-c1ccnc(C(C)(C)C(F)(F)F)c1 [Alpelisib] (partner 2 µM)
How it was run: as §1

Dinaciclib + Phenformin = compound: CCc1cnn2c(NCc3ccc[n+]([O-])c3)cc(N3CCCC[C@H]3CCO)nc12 [Dinaciclib] + N=C(N)NC(=N)NCCc1ccccc1 [Phenformin] (partner 250 µM)
How it was run: as §1

Dinaciclib + Decitabine = compound: CCc1cnn2c(NCc3ccc[n+]([O-])c3)cc(N3CCCC[C@H]3CCO)nc12 [Dinaciclib] + Nc1ncn([C@H]2C[C@H](O)[C@@H](CO)O2)c(=O)n1 [Decitabine] (partner 2 µM)
How it was run: as §1

Dinaciclib + Olaparib = compound: CCc1cnn2c(NCc3ccc[n+]([O-])c3)cc(N3CCCC[C@H]3CCO)nc12 [Dinaciclib] + O=C(c1cc(Cc2n[nH]c(=O)c3ccccc23)ccc1F)N1CCN(C(=O)C2CC2)CC1 [Olaparib] (partner 8 µM)
How it was run: as §1

A549 gave a relative viability (Dinaciclib; 0.009487 µM) of 0.968, a relative viability (Dinaciclib; 0.03 µM) of 0.32 and a relative viability (Dinaciclib; 0.09487 µM) of 0.0405. It also gave a relative viability (Dinaciclib; 0.3 µM) of 0.046, a relative viability (Dinaciclib + Navitoclax; first compound 0.009487 µM) of 1.05 and a relative viability (Dinaciclib + Navitoclax; first compound 0.03 µM) of 0.0352. It also gave a relative viability (Dinaciclib + Navitoclax; first compound 0.09487 µM) of 0.038, a relative viability (Dinaciclib + Navitoclax; first compound 0.3 µM) of 0.0398 and a relative viability (Dinaciclib + Foretinib; first compound 0.009487 µM) of 0.952. For the same cell line, the relative viability (Dinaciclib + Foretinib; first compound 0.03 µM) was 0.0544, the relative viability (Dinaciclib + Foretinib; first compound 0.09487 µM) was 0.0214 and the relative viability (Dinaciclib + Foretinib; first compound 0.3 µM) was 0.0246. The relative viability (Dinaciclib + Lapatinib; first compound 0.009487 µM) was 0.85, the relative viability (Dinaciclib + Lapatinib; first compound 0.03 µM) was 0.0505 and the relative viability (Dinaciclib + Lapatinib; first compound 0.09487 µM) was 0.0627. The relative viability (Dinaciclib + Lapatinib; first compound 0.3 µM) was 0.0615, the relative viability (Dinaciclib + Pictilisib; first compound 0.009487 µM) was 0.375 and the relative viability (Dinaciclib + Pictilisib; first compound 0.03 µM) was 0.0566. The relative viability (Dinaciclib + Pictilisib; first compound 0.09487 µM) was 0.0629, the relative viability (Dinaciclib + Pictilisib; first compound 0.3 µM) was 0.0604 and the relative viability (Dinaciclib + Crizotinib; first compound 0.009487 µM) was 0.724. For the same cell line, the relative viability (Dinaciclib + Crizotinib; first compound 0.03 µM) was 0.365, the relative viability (Dinaciclib + Crizotinib; first compound 0.09487 µM) was 0.0408 and the relative viability (Dinaciclib + Crizotinib; first compound 0.3 µM) was 0.05. For the same cell line, the relative viability (Dinaciclib + Linsitinib; first compound 0.009487 µM) was 0.561, the relative viability (Dinaciclib + Linsitinib; first compound 0.03 µM) was 0.165 and the relative viability (Dinaciclib + Linsitinib; first compound 0.09487 µM) was 0.0454. The relative viability (Dinaciclib + Linsitinib; first compound 0.3 µM) was 0.0453, the relative viability (Dinaciclib + Alpelisib; first compound 0.009487 µM) was 0.686 and the relative viability (Dinaciclib + Alpelisib; first compound 0.03 µM) was 0.0411. For the same cell line, the relative viability (Dinaciclib + Alpelisib; first compound 0.09487 µM) was 0.0487, the relative viability (Dinaciclib + Alpelisib; first compound 0.3 µM) was 0.0518 and the relative viability (Dinaciclib + Phenformin; first compound 0.009487 µM) was 0.174. The relative viability (Dinaciclib + Phenformin; first compound 0.03 µM) was 0.0204, the relative viability (Dinaciclib + Phenformin; first compound 0.09487 µM) was 0.035 and the relative viability (Dinaciclib + Phenformin; first compound 0.3 µM) was 0.0274. The relative viability (Dinaciclib + Decitabine; first compound 0.009487 µM) was 0.293, the relative viability (Dinaciclib + Decitabine; first compound 0.03 µM) was 0.205 and the relative viability (Dinaciclib + Decitabine; first compound 0.09487 µM) was 0.0304. It also gave a relative viability (Dinaciclib + Decitabine; first compound 0.3 µM) of 0.0308, a relative viability (Dinaciclib + Olaparib; first compound 0.009487 µM) of 0.276 and a relative viability (Dinaciclib + Olaparib; first compound 0.03 µM) of 0.0567. For the same cell line, the relative viability (Dinaciclib + Olaparib; first compound 0.09487 µM) was 0.0423 and the relative viability (Dinaciclib + Olaparib; first compound 0.3 µM) was 0.0382.
